The text below walks through data of article PMC3432134, “Effect of Ambient Temperature on the Thermoregulatory and Locomotor Stimulant Effects of 4-Methylmethcathinone in Wistar and Sprague-Dawley Rats” (PLoS ONE, 2012).

“And” between values parts separate entries of the source, which are not always exact repeats. Equal values may be shown once. A value given as a limit tells only on which side of the number the result lay.

Data set [1] is described as follows: Pharmacokinetic study, plasma levels by LC/MS/MS after s.c. dosing. The class given is in vivo, rat. The note with it: for AUC(0-inf) / Tmax / Cmax: rat, plasma, sc, 5.6 mg/kg s.c. Here is the method: Surgical placement of jugular vein catheters was conducted at the vendor prior to delivery at the laboratory. Blood samples were collected via the jugular catheters at timepoints 5, 15, 30, 60, 120 min and 3, 6 and 24 hrs after dosing. Plasma was stored at −80°C until analysis for drug concentrations via LC/MS/MS. Sample analysis was by LC/MS/MS with data analysis via the non compartmental analysis model of PK Solutions (Summit Research Services; Montrose, CO). The summary data for the Sprague-Dawley group have been previously described.

For data set [2], the system named is extra-cellular dopamine in the nucleus accumbens shell. Description: In vivo microdialysis, nucleus accumbens shell, dopamine. Details: species or system rat. The note with it: 5 male Wistar rats, 10 mg/kg s.c. As to the method: (§1) For microdialysis studies, drug naïve rats were implanted with a microdialysis guide cannula and probe using previously published procedures. A guide cannula (SciPro, Sanborn, NY) was implanted aimed at the NAc shell (AP = +1.6 mm, bregma; ML = ±2.0 mm, bregma; DV = –5.0 mm, dura), and rats were allowed one week for recovery. On the evening prior to the experiment, a 2 mm microdialysis probe was inserted into the guide cannula and perfused overnight with artificial CSF (0.1 µl/min) composed of the following (in mM): 149 NaCl, 2.8 KCl, 1.2 CaCl2, 1.2 MgCl2, 0.25 ascorbic acid, 5.4 D-glucose. The following morning, the perfusion rate was raised to 0.6 µl/min and samples were collected in 15 min fractions following 1 hr of equilibration.

For data set [3], the system named is extra-cellular serotonin in the nucleus accumbens shell. Description: In vivo microdialysis, nucleus accumbens shell, serotonin. Further details: species or system rat. The note with it: 5 male Wistar rats, 10 mg/kg s.c. As to the method:
as §1

In data set [4] the test system is 5-HT2 receptor subtypes versus D2 receptors. Further details: method as in PMID 21824752. The note with it: in vitro; greater affinity for 5-HT2; cited from earlier work.
In data set [5] the test system is extracellular dopamine. Further details: method as in PMID 21615721, PMID 22169943. The note with it: cited from earlier work.
Data set [6] concerns Sprague-Dawley rats. Further details: method as in PMID 21810934. The note with it: four sequential doses of 1.0 or 3.0 mg/kg s.c. two hours apart, and i.v. self-administration (mean 1.77–6.78 mg/kg), ambient ≥27°C; cited from earlier work.
The test system of data set [7] is experienced-user sample. The note with it: one experienced-user sample; cited from earlier work.
The test system of data set [8] is Wistar and Sprague-Dawley rats. In words: Body temperature by implanted radiotelemetry after s.c. drug challenge.
Data set [9] deals with Wistar and Sprague-Dawley rats. Description: Locomotor activity (activity counts) by implanted radiotelemetry after s.c. drug challenge.
Setting [10] is: Wistar Han, male Wistar rats (N = 3).
Setting [11] is: male Sprague Dawley rats (N = 3), summary data previously described [32].
Where [12] appears, read: subcutaneous dosing, rats (strain not given).
[13] abbreviates: Sprague-Dawley rats, 23°C ambient, first hour after 3.2 mg/kg 4-MMC and 5.6 mg/kg METH, vs pretreatment and vehicle.
Where [14] appears, read: Wistar and Sprague-Dawley rats, s.c.
Setting [15] is: Wistar rats, 23°C ambient, first hour after 3.2 mg/kg 4-MMC or 5.6 mg/kg METH, second hour after 10.0 mg/kg 4-MMC, third hour after 5.6 mg/kg METH.
Setting [16] is: both strains, 23°C ambient, first hour after 10.0 mg/kg 4-MMC or 1.0 mg/kg METH s.c., greater in Sprague-Dawley.

Broadly, the AUC(0-inf) is the area under the concentration-time curve extrapolated to infinity. Read a high AUC(0-inf) as more exposure. As a reminder, the Tmax is the time from dosing to the highest level. What is called Cmax is the maximum level reached in the sampled fluid or tissue.

Consider `CNC(C)C(=O)c1ccc(C)cc1` (stereo not drawn) [4-MMC, 4-methylmethcathinone], for which the AUC(0-inf) was found to be 0.87 µg·h/mL in [1] (setting [10]) and 1.17 µg·h/mL in data set [1] (setting [11]). Moreover, the Tmax in data set [1] (setting [10]) and in data set [1] (setting [11]) was 15 min throughout. In addition, the Cmax in data set [1] (setting [10]) was 868 ng/mL and 4.9 µM; in data set [1] (setting [11]) it was 1210 ng/mL and 6.81 µM. The elimination from plasma entry in data set [1] (setting [12]) is “mostly eliminated within two hours”. Moreover, the “time at which maximum plasma levels were observed” value in [1] (setting [12]) is at most 15 min. Also, the “relative increase of extra-cellular DA over baseline” value in [2] was about 9 fold. Moreover, in data set [2] (Dunnett post-hoc), the “duration of significant increase of DA over the pre-treatment average” value is 2 h. The “relative increase of extra-cellular 5-HT over baseline” value in data set [3] was about 22 fold. The “duration of significant increase of 5-HT over the pre-treatment average” value in data set [3] (Dunnett post-hoc) was 1.5 h. In addition, in [4], the “affinity for 5-HT2 receptor subtypes relative to D2 receptors” value is recorded as 15 fold. In addition, the “increase of extracellular dopamine, less than METH” value in [5] is reported as “about 6 fold”. Besides, in data set [6], the rectal temperature entry is recorded as “elevates”. Further, the “users reporting cold extremities” value in data set [7] is “About 15%”. For the same compound, the “users reporting excessive perspiration” value in [7] is on record as 67%. Also, the “body temperature (hourly average)” value in [8] (Sprague-Dawley rats, 23°C ambient, only following 3.2 mg/kg (2, 3 hrs) and 5.6 mg/kg (3 hrs)) is “lower than both the pretreatment baseline and the comparable timepoint after vehicle injection”; in data set [8] (Sprague-Dawley rats, 23°C ambient, second hour after 10.0 mg/kg), “increased relative to vehicle”; in data set [8] (Sprague-Dawley rats, 27°C ambient, first hour after administration), “unchanged”; in data set [8] (Sprague-Dawley rats, 27°C ambient, third hour after 1.0 mg/kg, vs baseline and vehicle), “reliable decrease”; in [8] (Wistar rats, 23°C ambient, first hour after 3.2, 5.6 and 10 mg/kg s.c., vs baseline, saline and Sprague-Dawley), “significantly lowered”; in data set [8] (Wistar rats, 27°C ambient, first hour after 5.6 or 10.0 mg/kg s.c., vs baseline, saline and Sprague-Dawley) it was “decreased”. Further, the mean temperature nadir in data set [8] (Wistar rats, 10 mg/kg s.c., 23°C ambient, (±SEM)) was 36.74 (±0.187) °C; in data set [8] (Wistar rats, 10 mg/kg s.c., 27°C ambient, (±SEM)), 37.35 (±0.115) °C. Besides, in [8] (s.c. dosing, rats, applies to temperature and activity), the “duration of temperature and activity effects” value is on record as “about 90 minutes”. Moreover, the “locomotor activity (hourly summed counts)” value (“locomotor activity” for short) in data set [9] (setting [13]) was “reliably higher”; in [9] (Sprague-Dawley rats, 27°C ambient, first hour after 5.6 or 10.0 mg/kg, vs pre-injection, vehicle and Wistar), “higher”; in data set [9] (setting [15]) it was “higher than the vehicle condition”; in [9] (Wistar rats, 27°C ambient, after 3.2, 5.6 and 10.0 mg/kg, vs hour before injection and vehicle) it was “higher”; in data set [9] (setting [16]) it was “increased over pretreatment levels and vehicle”; in [9] (each strain, 23°C ambient, first hour after 5.6 or 10.0 mg/kg s.c., vs pre-injection hour and saline), “significantly elevated”. Moreover, the “locomotor activity” value in [9] (each strain, 23°C ambient, second hour after 10.0 mg/kg, vs vehicle, effect greater in Sprague-Dawley) is reported as “significant increase”. Moreover, in data set [9] (setting [14]), the “efficacy in stimulating locomotion relative to d-methamphetamine (METH)” value is given as “equally efficacious”. Further, the “potency in stimulating locomotion relative to METH” value in [9] (setting [14]) is “about tenfold less potent”.
`CCCN(CCC)C1CCc2cccc(O)c2C1` (stereo not drawn) [8-OH-DPAT]: the mean temperature nadir in [8] (Sprague-Dawley rats, 0.3 mg/kg s.c., 23°C ambient) was 35.62 (±0.177) °C; in [8] (Wistar rats, 0.3 mg/kg s.c., 23°C ambient), 35.18 (±0.178) °C. Besides, the “body temperature (hourly average)” value in data set [8] (Sprague-Dawley rats, 0.05, 0.1, 0.3 mg/kg, first hour (second hour also for 0.3 mg/kg), vs vehicle and baseline) is “lowered body temperature”; in [8] (Wistar rats, two hours after dosing with all three doses (0.05, 0.1, 0.3 mg/kg), vs vehicle and baseline), “hypothermia”. The body temperature entry in data set [8] (each strain of rats, 23°C ambient, s.c.) is reported as “significantly reduced”.
Take `CN[C@@H](C)Cc1ccccc1` [METH, d-methamphetamine]: the “body temperature (hourly average)” value in [8] (Sprague-Dawley rats, 23°C ambient, first hour after 1.0 mg/kg and first two hours after 5.6 mg/kg s.c., vs baseline and vehicle) is reported as “significantly increased”. Moreover, the “locomotor activity” value in data set [9] (setting [13]) was “reliably higher”; in data set [9] (setting [15]), “higher than the vehicle condition”; in data set [9] (setting [16]), “increased over pretreatment levels and vehicle”; in data set [9] (both strains, 23°C ambient, second hour after 5.6 mg/kg s.c.), “suppressed”.
